Experimental data: US7388022B2, “Polysubstituted 1,1-pyridylaminocyclopropanamine compounds” (priority 2005, dated 2008)
Counter-ions that a name gives are not always drawn. Like-named read-outs stand apart in the source and are kept apart here.

What was measured:
[1] = target: T1, type α4β2 central nicotinic receptors (Rattus norvegicus, UniProt P09483+P12390); experiment: Displacement of binding of [3H]-cytisine on type α4β2 nicotinic receptors of rat brain
T1 construct: from tissue; host or cells: rat brain membranes
Experimental: This study, carried out according to the technique described in Molec. Pharmacol., 1990, 39; 9-12, is aimed at determining the affinity of compounds of the present invention for type α4β2 central nicotinic receptors.
Membranes (250 μg/ml) of rat brain are incubated (2 hours, 20° C.) in the presence of a series of concentrations (0.01-10 μM) of each compound of the present invention (diluted starting from a 10 mM stock solution in DMSO) and [^3H]-cytisine (S.A.: 1184 GBq/mmol: 2 nM) in phosphate buffer (NaH2PO4 20 mM, pH 7.4); final volume: 250 μl. The non-specific binding is determined by incubating membranes in the presence of 10 μM of (−)nicotine. The affinity of the compounds of the present invention for type α4β2 central nicotinic receptors is characterised by determination of the Ki.

[2] = tested on: release of acetylcholine in the prefrontal cortex; experiment: In vivo measurement of the release of acetylcholine by intra-cortical microdialysis in the conscious Wistar rat; design: dose or concentration left out as unconfirmed; details: one hour after administration
Experimental: The systemic administration of nicotine and nicotinic agonists causes an increase, in vivo, of acetylcholine in various regions of the brain (Neurochem. Res., 1996, 21, 1181-1186; Eur. J. Pharmacol., 1998, 351, 181-188; Br. J. Pharmacol., 1999, 127, 1486-1494). A microdialysis probe is implanted in the median prefrontal cortex of male Wistar rats. Six or seven days after they have been implanted, the probes are perfused with Ringer's solution (NaCl 147 mM, KCl 2.7 mM, CaCl2 1.2 mM, MgCl2 1 mM, neostigmine 20 nM) at a flow rate of 1 μl/min, the animal being free to move. After 2 hours in the animal quarters, the product under test is administered by the intraperitoneal route. A group of control animals receives the solvent used for the product. The dialysates (30 μl) are then collected every 30 minutes for 4 hours in order to measure the cortical extra-synaptic concentrations of acetylcholine by means of HPLC with amperometric detection. The results are expressed in pg of acetylcholine/dialysate, and inter-group comparisons are carried out by means of variance analysis using 2 factors (treatment×time), with measurements being repeated over time.

[3] = tested on: abdominal cramps caused by PBQ; experiment: Abdominal contractions induced by phenyl-p-benzoquinone (PBQ) in the NMRI mouse; assay type: in vivo; details: 10 mg/kg IP
Experimental: Intraperitoneal administration of an alcoholic solution of PBQ causes abdominal cramps in the mouse (Proc. Soc. Exp. Biol., 1957, 95, 729-731). The cramps are characterised by repeated contractions of the abdominal musculature, accompanied by extension of the hind limbs. Most analgesics antagonise these abdominal cramps (Brit. J. Pharmacol. Chem., 1968, 32, 295-310). At t=0 min., the animals are weighed and the compound being studied is administered by the IP route. A group of control animals is given the solvent used for the compound. At t=30 min., an alcoholic solution of PBQ (0.2%) is administered by the IP route in a volume of 0.25 ml/mouse. Immediately after administration of the PBQ, the animals are placed in cylinders of plexiglass (L=19.5 cm; I.D.=5 cm). From t=35 min. to t=45 min., the animals' reaction is observed and the experimenter notes the total number of abdominal cramps per animal. The results are expressed as the percentage inhibition of the number of abdominal cramps measured in the control animals, at the active dose of the compound studied.

[4] = tested on: social recognition (memorisation); experiment: Social recognition in the Wistar rat; assay type: in vivo; details: 3 mg/kg IP, 2 hours after administration
Source text: Initially described in 1982 (J. Comp. Physiol., 1982, 96, 1000-1006), the social recognition test has subsequently been proposed by various authors (Psychopharmacology, 1987, 91, 363-368; Psychopharmacology, 1989, 97, 262-268) for studying the mnemocognitive effects of new compounds. The test is based on the natural expression of the olfactory memory of the rat and its natural tendency to forget and allows evaluation of memorisation, by recognition of a young congeneric animal, by an adult rat. A young rat (21 days), taken at random, is placed for 5 minutes in the cage housing an adult rat. With the aid of a video device, the experimenter observes the social recognition behaviour of the adult rat and measures its overall duration. The young rat is then removed from the adult rat's cage and is placed in its own cage until the second introduction. The adult rat is given the compound under test by the intraperitoneal route and, after 2 hours, is again brought into the presence (5 minutes) of the young rat. The social recognition behaviour is then observed again and its duration measured. The assessment criterion is the difference (T2−T1), expressed in seconds, between the “recognition” times of the 2 encounters.

[5] = tested on: object recognition (memorisation); experiment: Object recognition in the Wistar rat; assay type: in vivo; details: 0.3 mg/kg PO, 2nd session 24 hours later
Source text: The object recognition test in the Wistar rat (Behav. Brain Res., 1988, 31, 47-59) is based on the spontaneous exploratory activity of the animal and has the characteristics of episodic memory in humans. Sensitive to ageing (Eur. J. Pharmacol., 1997, 325, 173-180), as well as to cholinergic dysfunctions (Pharm. Biochem. Behav., 1996, 5(2), 277-283), this memory test is based on the differential exploration of 2 objects of fairly similar size, one familiar and the other new. Before the test, the animals are accustomed to the environment (enclosure without object). During a 1st session, the rats are placed (for 3 minutes) in an enclosure containing 2 identical objects. The duration of exploration of each object is measured. During the second session (3 minutes), 24 hours later, 1 of the 2 objects is replaced by a new object. The duration of exploration of each object is measured. The assessment criterion is the difference Delta, expressed in seconds, between the exploration times of the new object and the familiar object during the 2nd session.

[6] = target: type α7 central nicotinic receptors (Rattus norvegicus, UniProt Q05941); experiment: biochemical; assay type: binding
Chain of type α7 central nicotinic receptors (Q05941 23-502): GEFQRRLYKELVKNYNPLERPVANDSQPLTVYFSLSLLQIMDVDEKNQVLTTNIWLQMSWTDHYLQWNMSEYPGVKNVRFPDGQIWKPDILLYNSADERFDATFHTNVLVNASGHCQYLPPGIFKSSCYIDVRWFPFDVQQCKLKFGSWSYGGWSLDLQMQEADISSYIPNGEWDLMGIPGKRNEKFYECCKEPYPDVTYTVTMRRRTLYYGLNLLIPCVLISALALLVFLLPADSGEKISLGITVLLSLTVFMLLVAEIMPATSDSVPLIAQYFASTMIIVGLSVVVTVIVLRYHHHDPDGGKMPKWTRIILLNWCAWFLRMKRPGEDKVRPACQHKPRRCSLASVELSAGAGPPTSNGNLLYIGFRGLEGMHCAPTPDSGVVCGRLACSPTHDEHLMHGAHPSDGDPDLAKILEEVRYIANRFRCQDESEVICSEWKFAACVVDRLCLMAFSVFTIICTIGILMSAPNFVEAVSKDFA

T1 sequence (P09483 31-630): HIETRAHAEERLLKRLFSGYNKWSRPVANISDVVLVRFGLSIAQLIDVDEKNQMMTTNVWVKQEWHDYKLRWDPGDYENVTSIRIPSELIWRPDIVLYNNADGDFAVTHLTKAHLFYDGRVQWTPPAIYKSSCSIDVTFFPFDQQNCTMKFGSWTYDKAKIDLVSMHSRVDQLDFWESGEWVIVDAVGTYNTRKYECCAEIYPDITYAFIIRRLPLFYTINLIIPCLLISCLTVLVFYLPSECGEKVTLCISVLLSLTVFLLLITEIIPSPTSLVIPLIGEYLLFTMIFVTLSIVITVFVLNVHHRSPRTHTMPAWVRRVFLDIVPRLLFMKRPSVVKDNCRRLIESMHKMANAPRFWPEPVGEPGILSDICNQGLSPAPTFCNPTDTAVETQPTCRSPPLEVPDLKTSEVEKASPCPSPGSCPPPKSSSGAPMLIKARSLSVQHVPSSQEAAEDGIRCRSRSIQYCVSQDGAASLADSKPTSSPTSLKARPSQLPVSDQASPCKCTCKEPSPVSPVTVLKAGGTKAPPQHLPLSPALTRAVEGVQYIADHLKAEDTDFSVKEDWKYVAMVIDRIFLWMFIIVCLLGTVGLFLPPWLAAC
T1 sequence (P12390 25-500): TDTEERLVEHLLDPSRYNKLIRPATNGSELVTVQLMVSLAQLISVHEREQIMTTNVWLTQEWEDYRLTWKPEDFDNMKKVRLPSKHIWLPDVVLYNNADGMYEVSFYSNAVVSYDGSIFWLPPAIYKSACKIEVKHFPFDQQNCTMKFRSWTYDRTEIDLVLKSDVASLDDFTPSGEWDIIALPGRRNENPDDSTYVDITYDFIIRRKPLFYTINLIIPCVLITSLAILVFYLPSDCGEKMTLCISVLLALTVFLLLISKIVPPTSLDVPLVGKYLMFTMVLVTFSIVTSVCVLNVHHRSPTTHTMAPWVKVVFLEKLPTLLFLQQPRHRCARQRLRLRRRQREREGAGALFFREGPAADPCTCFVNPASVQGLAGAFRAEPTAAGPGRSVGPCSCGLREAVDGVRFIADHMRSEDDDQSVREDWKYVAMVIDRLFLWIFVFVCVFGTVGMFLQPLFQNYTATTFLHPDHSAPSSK

SMILES: CNC1(CN(C)c2ccc(Br)nc2)CC1.O=C(O)/C=C/C(=O)O
- melting point: 146 to 150 °C

SMILES: CNC1(CNc2ccc(C)nc2)CC1.Cl.Cl
- melting point: 230 to 232 °C

SMILES: CNC1(CN(C)c2ccc(C)nc2)CC1.Cl.Cl
- melting point: 112 to 115 °C

SMILES: CN(C)C1(CNc2ccc(Cl)nc2)CC1.Cl.Cl
- melting point: 158 to 160 °C

SMILES: CN(CC1(N(C)C)CC1)c1ccc(Cl)nc1.Cl.Cl
- melting point: 163 to 166 °C

SMILES: CNC1(CN(Cc2ccccc2)c2ccc(Cl)nc2)CC1.Cl.Cl
- melting point: 156 to 157 °C

SMILES: CN(C)C1(CN(Cc2ccccc2)c2ccc(Cl)nc2)CC1.Cl
- melting point: 190 to 192 °C

SMILES: CN(C)C1(CNc2cccnc2)CC1.Cl.Cl
- melting point: 208 to 210 °C

SMILES: CN(CC1(N)CC1)c1cccnc1.Cl.Cl
- melting point: 218 to 222 °C

SMILES: CN(CC1(N(C)C)CC1)c1cccnc1.Cl.Cl
- melting point: 198 to 201 °C

SMILES: CNC1(CN(C)c2ccc(Cl)nc2)CC1 (as salt: hydrochloride) [Example 10, 6-Chloro-N-methyl-N-{[1-(methylamino)cyclopropyl)methylpyridin-3-aminedihydrochloride]
- melting point: 133 to 136 °C

SMILES: CNC1(CNc2cccnc2)CC1.Cl.Cl [Example 1, N-{[1-(Methylamino)cyclopropyl]methyl}pyridin-3-amine dihydrochloride]
- Ki [1]: 34 nM
- increase in the release of acetylcholine in the prefrontal cortex [2]: +70%
- reduction of the number of abdominal cramps caused by PBQ [3]: −50%
- difference (T2−T1) between recognition times [4]: 36 s
- difference Delta between exploration times of new and familiar object [5]: 9 s
- melting point: 190 to 195 °C

SMILES: CNC1(CN(C)c2cccnc2)CC1.Cl.Cl [Example 2, N-Methyl-N-{[1-(methylamino)cyclopropyl]methyl}pyridin-3-amine dihydrochloride]
- Ki [6]: 8300 nM
- Ki [1]: 15 nM
- increase in the release of acetylcholine in the prefrontal cortex [2]: +80%
- reduction of the number of abdominal cramps caused by PBQ [3]: −76%
- difference (T2−T1) between recognition times [4]: 29 s
- difference Delta between exploration times of new and familiar object [5]: 4 s
- melting point: 180 to 184 °C

SMILES: Cl.Cl.NC1(CNc2cccnc2)CC1 [Example 4, N-[(1-Aminocyclopropyl)methyl]pyridin-3-amine dihydrochloride]
- difference (T2−T1) between recognition times [4]: 19 s
- melting point: 195 to 199 °C

SMILES: CNC1(CNc2ccc(Cl)nc2)CC1.Cl.Cl [Example 9]
- reduction of the number of abdominal cramps caused by PBQ [3]: −52%

SMILES: CNC1(CN(C)c2ccc(Cl)nc2)CC1 [Example 10, 6-Chloro-N-methyl-N-{[1-(methylamino)cyclopropyl)methylpyridin-3-aminedihydrochloride]
- Ki ([1]; [3H]-cytisine, rat brain membranes, read-out: Ki, type α4β2 central nicotinic receptors): 16 nM
- reduction of the number of abdominal cramps caused by PBQ [3]: −69%
